Assay results as given in publication PMC6123649, “Structural basis for specific inhibition of the highly sensitive ShHTL7 receptor” (EMBO Reports, 2018).

What was measured:
ShHTL7 L143Y mutant = test: Intrinsic Triton fluorescence binding assay; design: species or system Striga hermonthica
Description: Triton X‐100 has an excitation and emission wavelength of 275 and 302 nm, respectively. ShHTL7, ShHTL7‐L143Y, AtD14, and OsD14 were incubated in 50 mM Tris–HCl pH 7.5, 150 mM NaCl, with or without 0.005% Tween‐20, at concentrations ranging from 10 μM to 1 nM (obtained using serial dilutions) with 154 nM of Triton X‐100 for 1–2 h, and fluorescence values were then measured by SpectraMax i3 (Molecular Devices) at excitation and detection wavelengths of 275 and 302 nm, respectively. […] Data were normalized to the background fluorescence from the protein to obtain the change in Triton X‐100 fluorescence intensity. To determine the K d, the changes in Triton X‐100 fluorescence intensity were plotted against the concentration of the protein using the single binding site model implemented in GraphPad (Prism 6).

ShHTL7 [1] = target: T1, ShHTL7 (Striga hermonthica, UniProt A0A0M3PNA2); test: Microscale thermophoresis (MST); format: binding; details: 2.5 h pre‐incubation; 0.005% Tween‐20; read-out: dissociation constant (Kd), MST
T1 sequence (A0A0M3PNA2 1-271): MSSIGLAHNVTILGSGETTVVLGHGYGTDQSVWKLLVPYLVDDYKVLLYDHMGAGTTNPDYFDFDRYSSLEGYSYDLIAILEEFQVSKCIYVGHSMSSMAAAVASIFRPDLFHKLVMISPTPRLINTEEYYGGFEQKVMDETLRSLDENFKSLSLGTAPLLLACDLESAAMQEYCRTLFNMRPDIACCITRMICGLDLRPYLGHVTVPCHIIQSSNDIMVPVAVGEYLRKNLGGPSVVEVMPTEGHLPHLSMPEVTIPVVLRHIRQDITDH
Description: ShHTL7 was N‐terminally labeled with RED dye (NT‐647) following the protocol from manufacturer (NanoTemper, Germany). Free dye was removed by passing through the Sephadex G‐25 column. Serial dilutions of unlabeled Triton X‐100, GR24, and PAA ranging from 25 μM to sub‐nanomolar range were mixed with 20 nM of NT‐647‐labeled ShHTL7 in buffer (50 mM Tris–HCl, 150 mM NaCl, 0.005% Tween‐20) and incubated for 2.5 h in the studies for Triton X‐100 and PAA except with GR24, and it was recorded after 10‐min incubation. About 10 μl of sample was loaded into premium monolith NT capillaries, and assays were carried out in a NanoTemper Monolith NT.015T. The red fluorescence was excited by a light‐emitting diode, and its emission was recorded on the focused part of capillaries. Using laser diode, a microscopic temperature gradient was created at the same location and the fluorescence depletion was measured. K d values were determined by plotting the concentrations of unlabeled ligands against the changes in fluorescent thermophoresis signal, and the data were analyzed using the NanoTemper analysis software.

ShHTL7‐L143Y = test: YLG hydrolysis assay; format: biochemical, Striga hermonthica
Description: (§1) In vitro YLG hydrolysis assays were performed using 3 μM of ShHTL7, ShHTL7‐L143Y, AtD14, and OsD14 in a reaction buffer (1× PBS) with 0.1% dimethyl sulfoxide (DMSO) in a 100 μl volume on a 96‐well black plate (Greiner). The fluorescent intensity was measured by SpectraMax i3 (Molecular Devices) using an excitation wavelength of 480 nm and a detection wavelength of 520 nm. ShHTL7, ShHTL7‐L143Y, AtD14, and OsD14 were mixed with Triton X‐100, using serial dilutions to cover the Triton X‐100 concentration range from 5 μM until 4.87 nM. Protein‐Triton mixes were pre‐incubated for 30 min. 1 μM YLG (Tokyo Chemical Industry Co. Ltd.) was then added, and the assay was incubated for 60 min. The change in fluorescence observed over the course of 1 h incubation of YLG in buffer without protein was subtracted from the data collected in the presence of protein. The resulting relative fluorescence values were analyzed. The inhibitory curves and IC50 values were plotted using GraphPad (Prism 6) four‐parameter logistic curve. The rate of YLG hydrolysis by ShHTL7 was recorded following the above method at 10‐min interval for 2 h.

AtD14 = target: T2, AtD14 (Arabidopsis thaliana, UniProt Q9SQR3); test: YLG hydrolysis assay; format: biochemical
T2 construct: made in house; host or cells: E. coli BL21 (DE3)
T2 sequence (Q9SQR3 1-267): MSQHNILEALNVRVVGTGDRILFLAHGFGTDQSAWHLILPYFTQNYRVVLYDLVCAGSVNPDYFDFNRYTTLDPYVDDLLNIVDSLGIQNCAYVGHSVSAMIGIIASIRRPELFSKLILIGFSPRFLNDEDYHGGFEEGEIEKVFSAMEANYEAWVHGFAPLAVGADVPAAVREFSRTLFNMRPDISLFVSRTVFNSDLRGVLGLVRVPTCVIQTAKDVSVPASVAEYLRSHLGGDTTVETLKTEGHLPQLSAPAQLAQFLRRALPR
Description: as §1

OsD14 = target: T3, OsD14 (Oryza sativa subsp. japonica, UniProt Q10QA5); test: YLG hydrolysis assay; format: biochemical
T3 construct: made in house; host or cells: E. coli BL21 (DE3)
T3 sequence (Q10QA5 1-318): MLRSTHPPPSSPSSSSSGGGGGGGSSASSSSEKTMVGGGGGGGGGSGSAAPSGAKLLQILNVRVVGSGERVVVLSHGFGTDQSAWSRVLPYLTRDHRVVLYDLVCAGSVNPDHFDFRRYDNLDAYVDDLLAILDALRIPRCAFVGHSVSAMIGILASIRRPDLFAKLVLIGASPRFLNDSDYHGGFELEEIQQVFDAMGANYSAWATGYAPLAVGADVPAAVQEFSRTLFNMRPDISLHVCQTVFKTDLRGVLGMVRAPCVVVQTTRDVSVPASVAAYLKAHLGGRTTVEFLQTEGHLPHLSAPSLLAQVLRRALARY
Description: as §1

ShHTL7 [2] = target: T1, ShHTL7; test: Drug affinity response target stability (DARTS) assay; format: binding; details: 100 μM compound; proteinase K 10 μg/ml
Description: ShHTL7 and mutants were diluted to a concentration of 30 μM in 50 mM Tris–HCl pH 7.5, 150 mM NaCl, 0.005% Tween‐20, incubated with GR24 at final concentration of 100 μM for 5 min, and separately with 100 μM Triton X‐100 for 2 h. One sample was kept aside for use as an undigested control. Proteinase K (Hampton Research) was then added to ShHTL7 protein to a final protease concentration of 10 μg/ml. Reactions were incubated at room temperature for 5 min and then SDS–PAGE loading buffer was added to stop the reaction, and the samples were immediately boiled for 3 min. Equal amounts of each sample, corresponding to 10 μg of protein, were run on a 4–20% gradient polyacrylamide gel (Bio‐Rad) and analyzed by Coomassie Blue staining 32.

## Triton X-100
ShHTL7 L143Y mutant
  binding to ShHTL7 L143Y mutant in vitro: failed to bind
ShHTL7 [1]
  Kd: 440 ± 50 nM
ShHTL7‐L143Y
  inhibition of hydrolysis activity of ShHTL7 L143Y: did not inhibit
AtD14; 5 μM Triton
  decrease of YLG hydrolysis rate: 10%
AtD14; Triton up to 0.5 μM
  effect on YLG hydrolysis activity: did not impact
OsD14; 5 μM Triton
  decrease of YLG hydrolysis rate: 10%
OsD14; Triton up to 0.5 μM
  effect on YLG hydrolysis activity: did not impact
ShHTL7 [2]
  protection of ShHTL7 from digestion by proteinase K: efficiently protected
